Data set [1] can be described thus: in vitro. The note with it: rat, microsomes.
Data set [2] has as its target CDK9/CYCLINT1 (Homo sapiens, UniProt P50750). To be noted: 1 µM, ATP at Km.
For data set [3], the target named is aldehyde oxidase (Homo sapiens, UniProt Q06278).
Data set [4] relates to phospho-STAT1^SER727. The note with it: single 5 mg/kg po dose; SW620 xenograft.
Data set [5] in a line: in vivo. To be noted: mouse.
Data set [6] concerns the target MAPKAP-K3 (Homo sapiens, UniProt Q16644). To be noted: 1 µM, ATP at Km.
Data set [7] addresses MAPKAP-K2 (Homo sapiens, UniProt P49137). The note with it: 1 µM, ATP at Km.
Data set [8] in a line: in vivo. To be noted: rat.
Data set [9] has as its target cMET (Y1248H) (Homo sapiens, UniProt P08581, Y1230H). To be noted: 1 µM, ATP at Km.
Data set [10] addresses HCK (Homo sapiens, UniProt P08631). To be noted: HCK (second listing, page 11); 1 µM; ATP at Km.
For data set [11], the target named is cMET (M1268T) (Homo sapiens, UniProt P08581, M1250T). To be noted: 1 µM, ATP at Km.
The target in data set [12] is ABL(T315I) (Homo sapiens, UniProt P00519, T315I). The note with it: 1 µM, ATP at Km.
The target in data set [13] is FGFR2(N549H) (Homo sapiens, UniProt P21802, N549H). To be noted: 1 µM, ATP at Km.
Data set [14] deals with […](D842V) (Homo sapiens, UniProt P16234, D842V). To be noted: 1 µM, ATP at Km.
The target of data set [15] is FLT3(D835Y) (Homo sapiens, UniProt P36888, D835Y). The note with it: 1 µM, ATP at Km.
In data set [16] the target is SAPK2A(T106M) (Homo sapiens, UniProt Q16539, T106M). To be noted: 1 µM, ATP at Km.
For data set [17], the target named is EGFR(T790M) (Homo sapiens, UniProt P00533, T790M). The note with it: 1 µM, ATP at Km.
Data set [18] concerns the target TIE2(R849W) (Homo sapiens, UniProt Q02763, R849W). The note with it: 1 µM, ATP at Km.
For data set [19], the target named is BTK(R28H) (Homo sapiens, UniProt Q06187, R28H). To be noted: 1 µM, ATP at Km.
Data set [20] addresses […](V561D) (Homo sapiens, UniProt P16234, V561D). The note with it: 1 µM, ATP at Km.
Data set [21] deals with FMS(Y969C) (Homo sapiens, UniProt P07333, Y969C). To be noted: 1 µM, ATP at Km.
In data set [22] the target is PI3 KINASE (H1047R/P85A) (Homo sapiens, UniProt P42336, H1047R). The note with it: 1 µM, ATP at Km.
PI3 KINASE (H1047R/P85A), sequence (P42336 whole entry H1047R): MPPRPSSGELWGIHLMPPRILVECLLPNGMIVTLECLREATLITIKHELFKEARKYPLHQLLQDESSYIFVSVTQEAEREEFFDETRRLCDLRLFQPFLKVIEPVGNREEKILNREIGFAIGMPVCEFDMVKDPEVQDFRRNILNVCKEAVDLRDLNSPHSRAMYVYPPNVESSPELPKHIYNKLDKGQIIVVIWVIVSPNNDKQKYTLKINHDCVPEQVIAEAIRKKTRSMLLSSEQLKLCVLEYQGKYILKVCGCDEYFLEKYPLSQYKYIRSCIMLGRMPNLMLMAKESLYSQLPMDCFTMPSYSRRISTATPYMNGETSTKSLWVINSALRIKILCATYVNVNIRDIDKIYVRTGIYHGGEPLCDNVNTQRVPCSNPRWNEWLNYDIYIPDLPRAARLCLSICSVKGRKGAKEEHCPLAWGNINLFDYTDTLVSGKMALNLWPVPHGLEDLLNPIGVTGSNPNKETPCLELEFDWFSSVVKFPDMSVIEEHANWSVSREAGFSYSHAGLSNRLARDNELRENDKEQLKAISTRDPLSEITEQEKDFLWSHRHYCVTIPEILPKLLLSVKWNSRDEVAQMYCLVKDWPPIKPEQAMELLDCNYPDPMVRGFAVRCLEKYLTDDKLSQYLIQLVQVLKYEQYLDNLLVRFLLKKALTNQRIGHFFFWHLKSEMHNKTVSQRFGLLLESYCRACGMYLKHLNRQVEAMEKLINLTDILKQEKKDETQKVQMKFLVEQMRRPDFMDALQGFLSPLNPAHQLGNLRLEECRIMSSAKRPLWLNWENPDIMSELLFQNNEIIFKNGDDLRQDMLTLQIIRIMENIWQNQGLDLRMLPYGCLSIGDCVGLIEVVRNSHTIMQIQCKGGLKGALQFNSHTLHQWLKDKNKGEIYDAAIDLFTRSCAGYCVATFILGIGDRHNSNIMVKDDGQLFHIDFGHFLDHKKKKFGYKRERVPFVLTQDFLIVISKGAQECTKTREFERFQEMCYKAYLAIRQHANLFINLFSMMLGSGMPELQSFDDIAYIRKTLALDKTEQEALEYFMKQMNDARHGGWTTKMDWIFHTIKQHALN
PI3 KINASE (H1047R/P85A), sequence (P27986 2-724 partner): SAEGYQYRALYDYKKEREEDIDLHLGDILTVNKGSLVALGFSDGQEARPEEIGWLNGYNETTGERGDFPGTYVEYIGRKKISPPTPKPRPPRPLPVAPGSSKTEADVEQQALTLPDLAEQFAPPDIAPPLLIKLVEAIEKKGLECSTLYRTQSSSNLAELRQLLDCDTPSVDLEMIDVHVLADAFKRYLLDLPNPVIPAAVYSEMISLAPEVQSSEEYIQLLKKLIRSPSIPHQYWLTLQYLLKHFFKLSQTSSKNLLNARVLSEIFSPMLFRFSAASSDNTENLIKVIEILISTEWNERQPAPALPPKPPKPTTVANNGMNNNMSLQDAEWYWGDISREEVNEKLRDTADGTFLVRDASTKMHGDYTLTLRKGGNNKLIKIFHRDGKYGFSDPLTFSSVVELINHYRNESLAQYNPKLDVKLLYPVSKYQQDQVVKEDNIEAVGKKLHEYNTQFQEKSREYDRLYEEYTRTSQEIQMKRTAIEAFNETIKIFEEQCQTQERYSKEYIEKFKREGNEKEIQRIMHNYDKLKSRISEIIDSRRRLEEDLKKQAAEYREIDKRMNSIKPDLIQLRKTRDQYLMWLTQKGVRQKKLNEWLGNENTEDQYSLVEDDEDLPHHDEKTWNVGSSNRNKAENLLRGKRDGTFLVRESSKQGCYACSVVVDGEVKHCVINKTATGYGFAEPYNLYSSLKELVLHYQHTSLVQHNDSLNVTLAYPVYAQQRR
The target in data set [23] is CKIT(D816V) (Homo sapiens, UniProt P10721, D816V). To be noted: 1 µM, ATP at Km.
CKIT(D816V), sequence (P10721 26-976 D816V): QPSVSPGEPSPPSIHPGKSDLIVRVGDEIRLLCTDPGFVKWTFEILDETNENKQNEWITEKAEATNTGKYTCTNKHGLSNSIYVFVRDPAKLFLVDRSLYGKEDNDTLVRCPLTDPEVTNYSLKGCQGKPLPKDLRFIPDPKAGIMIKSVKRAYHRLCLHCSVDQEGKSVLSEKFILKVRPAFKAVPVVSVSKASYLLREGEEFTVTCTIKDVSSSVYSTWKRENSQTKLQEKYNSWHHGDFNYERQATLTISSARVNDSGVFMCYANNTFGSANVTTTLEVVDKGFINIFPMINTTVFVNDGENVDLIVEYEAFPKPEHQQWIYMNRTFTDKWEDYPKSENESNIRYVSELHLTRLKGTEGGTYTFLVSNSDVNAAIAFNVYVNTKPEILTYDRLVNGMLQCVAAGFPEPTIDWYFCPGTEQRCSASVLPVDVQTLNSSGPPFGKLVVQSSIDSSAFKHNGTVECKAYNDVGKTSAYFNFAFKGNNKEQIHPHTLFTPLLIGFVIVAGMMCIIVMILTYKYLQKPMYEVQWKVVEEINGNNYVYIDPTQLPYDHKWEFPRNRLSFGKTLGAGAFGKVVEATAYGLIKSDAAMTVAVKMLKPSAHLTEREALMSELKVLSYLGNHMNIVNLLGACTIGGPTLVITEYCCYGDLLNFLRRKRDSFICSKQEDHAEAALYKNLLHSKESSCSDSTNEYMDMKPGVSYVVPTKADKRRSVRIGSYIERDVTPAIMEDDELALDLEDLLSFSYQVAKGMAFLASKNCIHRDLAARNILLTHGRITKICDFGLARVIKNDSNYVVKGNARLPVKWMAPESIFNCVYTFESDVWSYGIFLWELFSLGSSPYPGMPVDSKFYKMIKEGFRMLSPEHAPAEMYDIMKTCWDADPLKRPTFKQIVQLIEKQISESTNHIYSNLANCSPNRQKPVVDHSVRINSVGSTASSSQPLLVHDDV
Data set [24] addresses RET (V804L) (Homo sapiens, UniProt P07949, V804L). To be noted: 1 µM, ATP at Km.
Data set [25] concerns the target ABL (H396P) (Homo sapiens, UniProt P00519, H396P). The note with it: 1 µM, ATP at Km.
The target in data set [26] is CHK2(R145W) (Homo sapiens, UniProt O96017, R145W). The note with it: 1 µM, ATP at Km.
CHK2(R145W), sequence (O96017 whole entry R145W): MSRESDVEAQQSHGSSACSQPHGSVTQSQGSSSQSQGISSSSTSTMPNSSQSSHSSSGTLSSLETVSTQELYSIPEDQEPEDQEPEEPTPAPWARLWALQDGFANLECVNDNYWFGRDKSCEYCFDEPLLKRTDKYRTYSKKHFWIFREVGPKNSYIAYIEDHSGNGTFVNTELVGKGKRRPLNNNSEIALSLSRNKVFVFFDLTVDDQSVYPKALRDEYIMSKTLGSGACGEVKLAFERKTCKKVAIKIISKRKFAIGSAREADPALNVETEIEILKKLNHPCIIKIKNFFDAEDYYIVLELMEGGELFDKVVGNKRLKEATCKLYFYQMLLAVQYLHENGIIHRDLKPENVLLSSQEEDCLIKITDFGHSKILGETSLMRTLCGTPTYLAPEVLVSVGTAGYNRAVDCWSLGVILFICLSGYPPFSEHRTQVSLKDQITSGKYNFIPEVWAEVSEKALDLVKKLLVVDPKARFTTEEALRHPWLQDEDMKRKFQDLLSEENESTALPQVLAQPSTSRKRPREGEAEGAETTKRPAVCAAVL
Data set [27] has as its target CHK2(I157T) (Homo sapiens, UniProt O96017, I157T). The note with it: 1 µM, ATP at Km.

As a reminder, the microsomal CLint is the capacity of the preparation to metabolise the compound, expressed as a volume cleared per time. Read a high microsomal CLint as faster metabolism. Usually Vd stands for the apparent volume that relates the amount in the body to the concentration in plasma or blood. As usually defined, the clearance is the volume of plasma or blood freed of the substance per unit of time. The low end stands for inefficient removal, the high end for efficient removal. Usually bioavailability stands for dose-corrected exposure relative to a reference, in per cent.

aldehyde oxidase, sequence (Q06278 whole entry): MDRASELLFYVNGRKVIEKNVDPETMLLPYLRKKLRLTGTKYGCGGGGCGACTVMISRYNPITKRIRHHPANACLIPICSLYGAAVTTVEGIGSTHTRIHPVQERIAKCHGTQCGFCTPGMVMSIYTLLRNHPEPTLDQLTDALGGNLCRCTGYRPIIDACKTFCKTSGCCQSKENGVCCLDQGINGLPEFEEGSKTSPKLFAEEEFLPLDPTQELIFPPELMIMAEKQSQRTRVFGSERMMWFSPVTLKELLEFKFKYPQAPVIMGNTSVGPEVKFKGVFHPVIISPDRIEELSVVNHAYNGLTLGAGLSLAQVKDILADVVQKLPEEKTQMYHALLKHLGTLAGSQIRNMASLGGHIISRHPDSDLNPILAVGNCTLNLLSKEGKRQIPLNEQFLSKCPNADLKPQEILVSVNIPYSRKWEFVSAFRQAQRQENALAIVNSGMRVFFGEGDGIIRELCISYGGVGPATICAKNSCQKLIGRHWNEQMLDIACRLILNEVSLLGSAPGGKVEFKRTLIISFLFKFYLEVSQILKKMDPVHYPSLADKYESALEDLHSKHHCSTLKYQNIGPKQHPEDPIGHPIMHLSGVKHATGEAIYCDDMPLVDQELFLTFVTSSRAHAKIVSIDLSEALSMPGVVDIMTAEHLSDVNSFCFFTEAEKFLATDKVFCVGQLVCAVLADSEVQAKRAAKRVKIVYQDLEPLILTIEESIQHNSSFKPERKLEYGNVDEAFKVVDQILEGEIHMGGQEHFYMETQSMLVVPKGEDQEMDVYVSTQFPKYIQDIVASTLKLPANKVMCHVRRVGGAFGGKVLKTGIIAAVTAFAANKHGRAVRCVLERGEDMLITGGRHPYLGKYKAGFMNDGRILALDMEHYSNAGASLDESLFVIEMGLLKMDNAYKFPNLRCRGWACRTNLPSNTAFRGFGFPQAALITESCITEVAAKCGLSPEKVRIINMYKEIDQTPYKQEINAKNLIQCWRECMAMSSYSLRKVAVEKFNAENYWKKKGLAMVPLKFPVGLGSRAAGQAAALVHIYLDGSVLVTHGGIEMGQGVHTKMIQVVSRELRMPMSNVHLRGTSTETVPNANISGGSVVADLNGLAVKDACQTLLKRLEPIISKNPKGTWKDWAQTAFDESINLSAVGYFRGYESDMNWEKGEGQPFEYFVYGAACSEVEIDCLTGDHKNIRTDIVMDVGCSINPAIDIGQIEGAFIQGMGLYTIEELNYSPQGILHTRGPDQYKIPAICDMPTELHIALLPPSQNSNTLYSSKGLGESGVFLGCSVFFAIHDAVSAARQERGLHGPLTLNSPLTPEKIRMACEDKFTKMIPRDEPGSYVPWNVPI
MAPKAP-K2, sequence (P49137 whole entry): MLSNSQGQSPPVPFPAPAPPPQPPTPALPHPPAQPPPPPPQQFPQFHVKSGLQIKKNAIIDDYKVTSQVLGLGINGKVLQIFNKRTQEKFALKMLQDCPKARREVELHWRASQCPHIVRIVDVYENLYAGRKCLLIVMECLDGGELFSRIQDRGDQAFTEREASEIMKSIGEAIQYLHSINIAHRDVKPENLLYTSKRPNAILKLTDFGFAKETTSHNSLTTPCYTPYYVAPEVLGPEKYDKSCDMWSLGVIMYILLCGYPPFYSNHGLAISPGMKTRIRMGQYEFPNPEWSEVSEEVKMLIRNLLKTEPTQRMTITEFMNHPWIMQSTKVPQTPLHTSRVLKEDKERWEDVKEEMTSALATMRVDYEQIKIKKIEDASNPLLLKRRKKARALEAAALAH
CHK2(I157T), sequence (O96017 whole entry I157T): as the sequence (O96017 whole entry R145W) above, with W145R, I157T counted along it

In the case of `COC1CN(C(=O)c2ccc3c(N)ncc(-c4ccc(-c5cnn(C)c5)cc4)c3n2)C1` [Compound 51], in data set [1], the microsomal CLint at 1 µM was determined as 26 µL/min/mg. Further, the values for the percentage effect in data set [2], in [6] and in data set [7] were 8%, -15% and 6%, respectively. Besides, in data set [3], the “AO substrate (Enzyme assay)” value is given as “No”. Also, the “inhibition of phospho-STAT1^SER727 in tumor xenograft” value in data set [4] is “time-dependent inhibition of phospho-STAT1^SER727”. Besides, the Vd was determined as 1.87 L/kg in data set [5] (iv, 0.2 mg/kg) and 2.13 L/kg in [8] (iv, 0.2 mg/kg). For the same molecule, the clearance in data set [5] (iv, 0.2 mg/kg) is 1.94 L/h/kg; in [8] (iv, 0.2 mg/kg), 1.29 L/h/kg. Moreover, the bioavailability in data set [5] (po, 0.5 mg/kg) is 18%; in [8] (po, 0.5 mg/kg), 57%.

In the case of `COC1CN(C(=O)c2ccc3c(N)ncc(-c4ccc(-c5cnn(C)c5)cc4)c3c2)C1` [Compound 59], the percentage effect is listed as 6% in [9]; 0% in [10]; 5% in [11]; 5% in data set [12]; -14% in [13]; 1% in data set [14]. Moreover, the percentage effect is given as -10% in data set [15]; 1% in data set [16]; -2% in data set [17]; -12% in data set [18]; -12% in data set [19]; -9% in data set [20]. The percentage effect was -31% in data set [21]; -2% in data set [22]; -3% in [23]; -9% in data set [24]; 5% in data set [25]; -6% in data set [26]. Further, the percentage effect in [27] is on record as -9%.
